Test results from patent publication US8865656B2, “Beta-hairpin peptidomimetics having CXCR4 antagonizing activity” (Polyphor AG, priority 2009, dated 2014).
Starred links: 1 amine or outer side, 2 acyl side, 3 side chain; linkers in the order of their positions; H or OH if unused. Positions of bridges follow the written chain, without caps; N, C: chain ends. Non-standard residues stand in square brackets, D forms with d. Residues, ends and D or L forms follow the SMILES beside them. X2 = O=C(CC[C@H](Cc1ccc(O)cc1)N[*:1])[*:2]; Oic = O=C(O)[C@@H]1C[C@@H]2CCCC[C@@H]2N1; Dab = NCC[C@H](N)C(=O)O

Experiments:
human CXCR4 = target: T1, human CXCR4 (Homo sapiens, UniProt P61073); assay: Ca2+-assay: CXCR4-antagonizing activity (SDF-1 induced calcium mobilization); assay type: cell-based; details: mouse pre-B cell line 300-19 stably transfected with human CXCR4, read-out: IC50% [nM] ± SD, CXCR4 receptor
T1 construct: expressed in transfected cells; host or cells: mouse pre-B cell line 300-19
Description: 2.3. Ca^2+-Assay: CXCR4-Antagonizing Activity of the Peptides
Increases in intracellular calcium were monitored using a Flexstation 384 (Molecular Devices, Sunnyvale, Calif.) to assay the depsipeptides for CXCR4 antagonism in a mouse pre-B cell line 300-19 stably transfected with human CXCR4 (E. Oberlin, A. Amara, F. Bachelerie, C. Bessia, J.-L. Virelizier, F. Arenzana-Seisdedos, O. Schwartz, J.-M. Heard, I. Clark-Lewis, D. F. Legler, M. Loetscher, M. Baggiolini, B. Moser, Nature 1996, 382, 833-835; M. Loetscher, T. Geiser, T. O'Reilly, R. Zwalen, M. Baggiolini, B. Moser, J. Biol. Chem. 1994, 269, 232-237; M. D'Apuuo, A. Rolink, M. Loetscher, J. A. Hoxie, I. Clark-Lewis, F. Melchors, M. Baggiolini, B. Moser, Eur. J. Immunol. 1997, 27, 1788-1793). The cells were batch loaded with the Calcium 4 Assay kit (Molecular Devices) in assay buffer (Hanks Balanced salt solution [HBSS], 20 mM HEPES, pH 7.4, 0.1% BSA) for 1 h at room temperature and labeled cells were dispensed into black 96 well assays plates (Costar No. 3603). Calcium mobilization induced by stromal-derived factor-1 (SDF-1) was measured in the Flexstation 384 (excitation: 485 nm; emission: 525 nm) for 90 seconds. Antagonist activity of peptides was determined by spiking the cells with compounds prior to SDF-1 addition. Dose response curves (compound concentration versus % maximum response for SDF-1) were determined for each antagonist and IC50 values were calculated by fitting the data to a four parameter logistic equation using SoftmaxPro 4.8 (Molecular Devices).

in vitro [1] = assay type: cell-based; details: human
Experimental: (§1) The cytotoxicity of the depsipeptides to HELA cells (Acc57) and COS-7 cells (CRL-1651) was determined using the MTT reduction assay (T. Mossman, J. Immunol. Meth. 1983, 65, 55-63; M. V. Berridge, A. S. Tan, Arch. Biochem. Biophys. 1993, 303, 474-482). Briefly, the method was as follows: 7000 HELA cells/well and 4500 COS-7 cells/well were seeded and grown in 96-well microtiter plates for 24 h at 37° C. at 5% CO2. Thereafter, time zero (Tz) was determined by MTT reduction (see below). The supernatant of the remaining wells was discarded, and fresh medium and compounds in serial dilutions (12.5, 25 and 50 μM, triplicates) were pipetted into the wells. After incubation of the cells for 48 h at 37° C. at 5% CO2 the supernatant was discarded again and 100 μL MTT reagent (0.5 mg/mL in RPMI1640 and DMEM, respectively)/well was added. Following incubation at 37° C. for 2 h the media were aspirated and the cells were spiked (100 μL isopropanol/well). The absorbance of the solubilized formazan was measured at 595 nm (OD595peptide). For each concentration averages were calculated from triplicates. The percentage of growth was calculated as follows: (OD595peptide-OD595Tz-OD595Empty well)/(OD595Tz-OD595Empty well)×100%. The GI50 (Growth Inhibition) concentrations were calculated for each depsipeptide by using a trend line function for the concentrations (50, 25, 12.5 and 0 μM), the corresponding percentages and the value 50, (=TREND (C50:C0, %50:%0, 50).

in vitro [2] = assay type: cell-based; details: African green monkey
Experimental: as §1

[3] = test system: human red blood cells (hRBC); details: red cells of human, 1 h
Experimental: The peptides were tested for their hemolytic activity against human red blood cells (hRBC). Fresh hRBC were washed three times with phosphate buffered saline (PBS) and centrifuged for 10 min at 2000×g. Compounds (100 μM) were incubated with 20% hRBC (v/v) for 1 h at 37° C. The final erythrocyte concentration was approximately 0.9×10^9 cells/mL. A value of 0% and 100% cell lyses, respectively, was determined by incubation of hRBC in the presence of PBS alone and 0.1% Triton X-100 in H2O, respectively. The samples were centrifuged, the supernatants were 20-fold diluted in PBS buffer and the optical densities (OD) were measured at 540 nm.
Percent hemolysis was calculated as follows: (OD540peptide/OD540H2O)×100%.

[4] = Plasma stability in human plasma
Experimental: (§2) The stability of the peptides in human and mouse plasma was determined by applying the following method: 315 μL/deep well of freshly thawed human plasma (Basler Blutspende-dienst) and mouse plasma (Harlan Sera-Lab, UK), respectively, were spiked with 35 μL/well of compound in PBS (100 μM, triplicate) and incubated at 37° C. […] Following shaking for 2 min the occurred suspensions were filtrated by vacuum and finally, 100 μL of each filtrate were transferred to a propylene microtiter plate, and analyzed by LC/MS as follows: Column: Waters, XBridge C18, mobile phases: (A) water+0.1% formic acid and (B) acetonitrile/water, 95/5 (v/v)+0.1% formic acid, gradient: 5%-100% (B) in 2 minutes, electrospray ionization, MRM detection (triple quadrupole). The peak areas were determined and triplicate values are averaged. The stability is expressed in percent of the initial value at t=0. (tx/to×100). By using the TREND function of EXCEL (Microsoft Office 2003) T1/2 were determined.

[5] = Plasma stability in mouse plasma
Experimental: as §2

[6] = human plasma, 37° C., sampling up to 240 min
[7] = mouse plasma, 37° C., sampling up to 240 min

T1 sequence (P61073 whole entry): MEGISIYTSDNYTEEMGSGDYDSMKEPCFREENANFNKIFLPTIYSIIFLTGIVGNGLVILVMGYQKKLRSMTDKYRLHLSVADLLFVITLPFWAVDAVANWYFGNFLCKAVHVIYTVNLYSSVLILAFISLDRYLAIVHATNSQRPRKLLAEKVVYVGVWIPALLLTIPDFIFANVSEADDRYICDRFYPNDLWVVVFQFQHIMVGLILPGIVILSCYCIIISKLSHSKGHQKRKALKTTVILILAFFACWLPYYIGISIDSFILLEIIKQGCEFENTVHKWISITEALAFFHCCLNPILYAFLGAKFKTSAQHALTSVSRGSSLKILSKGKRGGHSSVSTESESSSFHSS

For `C[C@@H]1NC(=O)[C@H](Cc2c[nH]cn2)NC(=O)[C@H](Cc2ccc(O)cc2)NC(=O)[C@@H]2CCCN2C(=O)CN(CCCCN)C(=O)[C@H](CCCCN)NC(=O)[C@H](CCC(N)=O)NC(=O)[C@H](Cc2ccc(O)cc2)NC(=O)[C@@H]2CSSC[C@H](NC1=O)C(=O)N[C@@H](CO)C(=O)N[C@@H](C)C(=O)N1CCC[C@@H]1C(=O)N[C@@H](CCN)C(=O)N[C@@H](CCCNC(=N)N)C(=O)N[C@@H](Cc1ccc(O)cc1)C(=O)N2` [compound 9], the IC50 (human CXCR4) was 0.09 ± 0.05 nM, the GI50 (in vitro [1]) was > 50 µM and the GI50 (in vitro [2]) was > 50 µM. For the same compound, the “Hemolysis at 100 μM” value [3] was 2.1%, the “Plasmastability human pl. T1/2” value [4, 6] was 240 min and the “Plasmastability mouse pl. T1/2” value [5, 7] was 240 min.

In the case of `C[C@@H]1NC(=O)[C@H](Cc2c[nH]cn2)NC(=O)[C@H](Cc2ccc(O)cc2)NC(=O)[C@@H]2CCCN2C(=O)[C@@H](Cc2ccncc2)NC(=O)[C@H](CCCCN)NC(=O)[C@H](CCC(N)=O)NC(=O)[C@H](Cc2ccc(O)cc2)NC(=O)[C@@H]2CSSC[C@H](NC1=O)C(=O)N[C@@H](CO)C(=O)N[C@@H](C)C(=O)N1CCC[C@@H]1C(=O)N[C@@H](CCN)C(=O)N[C@@H](CCCNC(=N)N)C(=O)N[C@@H](Cc1ccc(O)cc1)C(=O)N2` [compound 6], the IC50 (human CXCR4) is reported as 0.17 ± 0.1 nM, the GI50 (in vitro [1]) is reported as > 50 µM and the GI50 (in vitro [2]) is reported as > 50 µM. The “Hemolysis at 100 μM” value [3] was 2.4%, the “Plasmastability human pl. T1/2” value [4, 6] was 240 min and the “Plasmastability mouse pl. T1/2” value [5, 7] was 240 min.

With `C[C@@H]1NC(=O)[C@H](Cc2c[nH]cn2)NC(=O)[C@H](Cc2ccc(O)cc2)NC(=O)[C@@H]2CCCN2C(=O)[C@@H](CCCCN)N(C)C(=O)[C@H](CCCCN)NC(=O)[C@H](CCC(N)=O)NC(=O)[C@H](Cc2ccc(O)cc2)NC(=O)[C@@H]2CSSC[C@H](NC1=O)C(=O)N[C@@H](CO)C(=O)N[C@@H](C)C(=O)N1CCC[C@@H]1C(=O)N[C@@H](CCN)C(=O)N[C@@H](CCCNC(=N)N)C(=O)N[C@@H](Cc1ccc(O)cc1)C(=O)N2` [compound 8] the IC50 (human CXCR4) was 0.31 ± 0.2 nM, the GI50 (in vitro [1]) was > 50 µM and the GI50 (in vitro [2]) was > 50 µM. For the same compound, the “Hemolysis at 100 μM” value [3] was 0.3%, the “Plasmastability human pl. T1/2” value [4, 6] was 240 min and the “Plasmastability mouse pl. T1/2” value [5, 7] was 240 min.

In the case of `C[C@@H]1NC(=O)[C@H](Cc2c[nH]cn2)NC(=O)[C@H](Cc2ccc(O)cc2)NC(=O)[C@@H]2C[C@@H]3CCCC[C@@H]3N2C(=O)[C@H]2CCCN2C(=O)[C@H](CCCCN)NC(=O)[C@H](CCC(N)=O)NC(=O)[C@H](Cc2ccc(O)cc2)NC(=O)[C@@H]2CSSC[C@H](NC1=O)C(=O)N[C@@H](CO)C(=O)N[C@@H](C)C(=O)N1CCC[C@@H]1C(=O)N[C@@H](CCN)C(=O)N[C@@H](CCCNC(=N)N)C(=O)N[C@@H](Cc1ccc(O)cc1)C(=O)N2` [compound 16] (cyclo(ACSA[dP][Dab]RYCYQK[dP][Oic]YH); disulfide 2-9), the IC50 (human CXCR4) is reported as 1.46 ± 1.6 nM, the GI50 (in vitro [1]) is reported as > 50 µM and the GI50 (in vitro [2]) is reported as > 50 µM. The “Hemolysis at 100 μM” value [3] was 0.5%, the “Plasmastability human pl. T1/2” value [4, 6] was 240 min and the “Plasmastability mouse pl. T1/2” value [5, 7] was 240 min.

In the case of `CC[C@@H](C)[C@@H]1C(=O)N2CCC[C@H]2C(=O)N[C@@H](Cc2ccc(O)cc2)C(=O)N[C@@H](Cc2c[nH]cn2)C(=O)N[C@@H](C)C(=O)N[C@H]2CSSC[C@H](NC(=O)[C@H](Cc3ccc(O)cc3)NC(=O)[C@H](CCCNC(=N)N)NC(=O)[C@H](CCN)NC(=O)[C@H]3CCCN3C(=O)[C@H](C)NC(=O)[C@H](CO)NC2=O)C(=O)N[C@@H](Cc2ccc(O)cc2)C(=O)N[C@@H](CCC(N)=O)C(=O)N[C@@H](CCCCN)C(=O)N1C` [compound 2], the IC50 (human CXCR4) is reported as 1.22 ± 1 nM, the GI50 (in vitro [1]) is reported as > 50 µM and the GI50 (in vitro [2]) is reported as > 50 µM. For the same compound, the “Hemolysis at 100 μM” value [3] was 0.6%, the “Plasmastability human pl. T1/2” value [4, 6] was 240 min and the “Plasmastability mouse pl. T1/2” value [5, 7] was 240 min.

With `C[C@@H]1NC(=O)[C@H](Cc2c[nH]cn2)NC(=O)CC[C@H](Cc2ccc(O)cc2)NC(=O)[C@@H]2CCCN2C(=O)[C@H]2CCCN2C(=O)[C@H](CCCCN)NC(=O)[C@H](CCC(N)=O)NC(=O)[C@H](Cc2ccc(O)cc2)NC(=O)[C@@H]2CSSC[C@H](NC1=O)C(=O)N[C@@H](CO)C(=O)N[C@@H](C)C(=O)N1CCC[C@@H]1C(=O)N[C@@H](CCN)C(=O)N[C@@H](CCCNC(=N)N)C(=O)N[C@@H](Cc1ccc(O)cc1)C(=O)N2` [compound 18] (cyclo([X2]HACSA[dP][Dab]RYCYQK[dP]P); disulfide 4-11) the IC50 (human CXCR4) was 0.39 ± 0.5 nM, the GI50 (in vitro [1]) was > 50 µM and the GI50 (in vitro [2]) was > 50 µM. The “Hemolysis at 100 μM” value [3] was 1.4%, the “Plasmastability human pl. T1/2” value ([4]; human, plasma, 10 μM) was 240 min and the “Plasmastability mouse pl. T1/2” value ([5]; mouse, plasma, 10 μM) was 240 min.
